Target: T1, PI3Kδ (recombinant GST-tagged PIK3CD co-expressed with PIK3R1, p85α) (Homo sapiens, UniProt O00329)
T1 construct: The protein is full length and co-expressed with untagged PIK3R1; GST; purchased Invitrogen PV5274
Assay: PI3Kδ inhibition, modified PIK3CD Adapta TR-FRET kinase assay
Type: biochemical
Details: 2 μM ATP, 50 μM PIP2, 1 hour at room temperature, pIC50 = -log(IC50 in M)
Procedure: The activity of compounds as PI3Kδ inhibitors may be determined by a variety of methods, including in vitro and in vivo methods. The following in vitro assay measures a test compound's ability to inhibit PI3Kδ-mediated phosphorylation of PIP2 and ATP.
Recombinant GST-tagged PIK3CD is purchased from Invitrogen (Part Number: PV5274). The protein is full length and co-expressed with untagged PIK3R1, phosphoinositide-3-kinase regulatory subunit 1 (p85α). The protein is stored at −20° C. in 50 mM TRIS (pH 7.5), 150 mM NaCl, 0.5 mM EDTA, 0.02% Triton® X-100, 2 mM DTT, and 50% glycerol.
A modified PIK3CD Adapta® assay (Invitrogen, Carlsbad, Calif.) is used to measure PI3Kδ inhibition of the example compounds. The assay has two phases. In the first phase, kinase reaction components, which include the enzyme (PIK3CD), substrates (PIP2, ATP), test compound (inhibitor), and assay buffer are added to each well, and the reaction is allowed to incubate for a pre-determined period of time. After reaction, a detection solution composed of a Eu (europium)-labeled anti-ADP antibody, Alexa Fluor® 647-labeled ADP tracer, and EDTA (to stop the kinase reaction) is added to each assay well. In this second phase, ADP formed by the kinase reaction displaces the Alexa Fluor® 647-labeled ADP tracer from the antibody, resulting in a decrease in time-resolved fluorescence resonance energy transfer (TR-FRET) signal. In the presence of the inhibitor, the amount of ADP formed by the kinase reaction is reduced, and the resulting intact antibody-tracer interaction maintains a high TR-FRET signal.
The assay uses black Greiner® 384-well plates (784076). The reaction buffer contains 50 mM Hepes (pH 7.5), 3 mM MgCl2, 1 mM EGTA, 100 mM NaCl, 0.03% CHAPS; 2 mM DTT is added fresh prior to each experiment. Enzyme (4 μL, estimated 1.5 nM in buffer) is first added to the wells of the plate. Next, test compounds (2 μL) from a source plate (5% dilution plate) are introduced into the wells. The final DMSO concentration in each assay well is 1%. The dilution plate contains 5% DMSO in the bottom half of columns 23 and 24, which serve as negative (non-inhibited) controls; the top half contains a known inhibitor concentration (positive control) that gives >98% inhibition of the kinase reaction. Other wells contain test compounds serially diluted across the plate 11 times for a total of 12 data points. The kinase reactions are carried out at room temperature and are initiated by the addition of 4 μL of solution containing 2 μM ATP and 50 μM PIP2. Each reaction is stopped after 1 hour±10 minutes via addition of 10 μL stop solution, which contains a final assay concentration of 3 nM Alexa Fluor® 647-labeled ADP tracer, 2 nM Eu-anti-ADP Antibody, and 10 mM EDTA. After allowing the solutions to equilibrate for 30±10 minutes, a PHERAstar plate reader is used to excite the Eu donor (at 337 nm) and to detect emission from the Alexa Fluor® 647 at 665 nm. This emission signal is referenced or “ratioed” to the emission from Eu at 620 nm. The emission ratio (665 nm/620 nm) from each well is collected and converted to percent conversion using a standard curve for the assay conditions: % conversion=B*(C+A−emission ratio)/(emission ratio−C), where “A” and “C” are the maximum and minimum values of the emission ratio obtained from the standard curve of emission ratio vs. % conversion (ATP-ADP); “B” is the emission ratio corresponding to the % conversion at the EC50 value for the ADP Tracer—Eu anti-ADP antibody complex. The percent inhibition for a given inhibitor concentration is computed from % conversion for the reaction and for the positive and negative controls. Corresponding IC50 values are calculated by non-linear curve fitting of the compound concentrations and values of percent inhibition to the standard IC50 equation and are reported as pIC50, i.e., −log(IC50), where IC50 is molar concentration at 50% inhibition.

T1 sequence (O00329 whole entry): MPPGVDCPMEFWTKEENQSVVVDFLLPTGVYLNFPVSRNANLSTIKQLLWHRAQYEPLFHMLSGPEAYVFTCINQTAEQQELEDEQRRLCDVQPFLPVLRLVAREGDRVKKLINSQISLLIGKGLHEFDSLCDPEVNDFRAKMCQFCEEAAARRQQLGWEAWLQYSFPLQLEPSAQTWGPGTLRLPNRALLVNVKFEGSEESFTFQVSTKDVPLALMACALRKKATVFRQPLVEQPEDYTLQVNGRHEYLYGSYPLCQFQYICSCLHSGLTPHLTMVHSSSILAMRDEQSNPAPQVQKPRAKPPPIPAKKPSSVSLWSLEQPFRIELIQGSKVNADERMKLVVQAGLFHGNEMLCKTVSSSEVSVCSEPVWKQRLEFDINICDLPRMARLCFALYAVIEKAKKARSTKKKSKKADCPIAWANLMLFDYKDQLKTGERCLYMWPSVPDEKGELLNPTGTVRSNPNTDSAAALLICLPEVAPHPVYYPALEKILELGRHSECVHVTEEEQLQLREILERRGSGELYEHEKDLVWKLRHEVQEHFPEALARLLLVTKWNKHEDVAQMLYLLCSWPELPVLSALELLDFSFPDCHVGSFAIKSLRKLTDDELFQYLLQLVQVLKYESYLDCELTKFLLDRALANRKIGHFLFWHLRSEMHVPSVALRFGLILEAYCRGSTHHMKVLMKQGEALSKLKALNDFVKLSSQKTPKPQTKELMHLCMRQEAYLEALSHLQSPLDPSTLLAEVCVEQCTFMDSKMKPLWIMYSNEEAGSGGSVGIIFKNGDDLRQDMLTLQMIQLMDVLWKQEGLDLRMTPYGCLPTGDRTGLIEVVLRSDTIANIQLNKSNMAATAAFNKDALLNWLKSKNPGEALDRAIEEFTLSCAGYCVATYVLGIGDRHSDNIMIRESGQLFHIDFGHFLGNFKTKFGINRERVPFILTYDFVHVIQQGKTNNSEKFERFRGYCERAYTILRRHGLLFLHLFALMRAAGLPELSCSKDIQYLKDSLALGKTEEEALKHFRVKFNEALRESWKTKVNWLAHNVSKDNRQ
T1 sequence (P27986 whole entry partner): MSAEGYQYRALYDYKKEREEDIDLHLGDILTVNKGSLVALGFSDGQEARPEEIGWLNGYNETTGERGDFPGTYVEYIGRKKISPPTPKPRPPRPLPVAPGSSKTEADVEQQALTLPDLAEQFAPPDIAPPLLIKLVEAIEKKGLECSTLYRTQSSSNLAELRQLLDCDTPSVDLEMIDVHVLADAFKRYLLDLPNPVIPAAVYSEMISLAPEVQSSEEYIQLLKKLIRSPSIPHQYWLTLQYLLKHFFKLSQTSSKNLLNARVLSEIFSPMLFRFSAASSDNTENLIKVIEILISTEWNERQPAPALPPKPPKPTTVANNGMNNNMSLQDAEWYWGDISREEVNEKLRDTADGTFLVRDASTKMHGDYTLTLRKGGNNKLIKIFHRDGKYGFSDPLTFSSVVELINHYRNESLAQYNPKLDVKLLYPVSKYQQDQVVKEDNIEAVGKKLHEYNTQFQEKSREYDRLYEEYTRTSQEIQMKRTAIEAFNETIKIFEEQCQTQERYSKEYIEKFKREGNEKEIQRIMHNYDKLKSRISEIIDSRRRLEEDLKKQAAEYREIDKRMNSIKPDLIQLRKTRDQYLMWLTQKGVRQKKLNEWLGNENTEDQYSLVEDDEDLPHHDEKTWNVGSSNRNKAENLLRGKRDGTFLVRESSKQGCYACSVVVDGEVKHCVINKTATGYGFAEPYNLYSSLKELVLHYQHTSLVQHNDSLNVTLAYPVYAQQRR

IC50 | Structure (SMILES)
< 2 nM | C[C@H](Nc1nc(N)nc(N)c1C#N)c1nc2ccn(C)c2cc1C1CCOCC1 [Example 26, (S)-2,4-Diamino-6-((1-(1-methyl-6-(tetrahydro-2H-pyran-4-yl)-1H-pyrrolo[3,2-b]pyridin-5-yl)ethyl)amino)pyrimidine-5-carbonitrile]
10 nM | C[C@H](Nc1nc(N)nc2[nH]cnc12)c1nc2ccn(C)c2cc1N1CCOCC1 [Example 27, (S)—N^6-(1-(1-Methyl-6-morpholino-1H-pyrrolo[3,2-b]pyridin-5-yl)ethyl)-9H-purine-2,6-diamine]
126 nM | C[C@H](Nc1nc(N)nc(N)c1Cl)c1nc2ccn(C)c2cc1N1CCOCC1 [Example 28, (S)-5-Chloro-N^4-(1-(1-methyl-6-morpholino-1H-pyrrolo[3,2-b]pyridin-5-yl)ethyl)pyrimidine-2,4,6-triamine]
< 1.26 nM | C[C@H](Nc1nc(N)nc(N)c1C#N)c1nc2ccn(C)c2cc1N1CCOCC1 [Example 29, (S)-2,4-Diamino-6-((1-(1-methyl-6-morpholino-1H-pyrrolo[3,2-b]pyridin-5-yl)ethyl)amino)pyrimidine-5-carbonitrile]
< 1 nM | Cc1noc(C)c1-c1cc2c(ccn2C)nc1[C@H](C)Nc1nc(N)nc(N)c1C#N [Example 30, 2,4-Diamino-6-(((1S)-1-(6-(3,5-dimethylisoxazol-4-yl)-1-methyl-1H-pyrrolo[3,2-b]pyridin-5-yl)ethyl)amino)pyrimidine-5-carbonitrile]
3.98 nM | Cc1nc(N)nc(N[C@@H](C)c2nc3ccn(C)c3cc2-c2c(C)noc2C)c1C#N [Example 31, 2-Amino-4-(((1S)-1-(6-(3,5-dimethylisoxazol-4-yl)-1-methyl-1H-pyrrolo[3,2-b]pyridin-5-yl)ethyl)amino)-6-methylpyrimidine-5-carbonitrile]
1.58 nM | C[C@H](Nc1nc(N)nc(N)c1C#N)c1nc2ccn(C)c2cc1-c1ccnn1C(F)F [Example 32, (S)-2,4-Diamino-6-((1-(6-(1-(difluoromethyl)-1H-pyrazol-5-yl)-1-methyl-1H-pyrrolo[3,2-b]pyridin-5-yl)ethyl)amino)pyrimidine-5-carbonitrile]
31.6 nM | C[C@H](Nc1nc(N)nc(N)c1Cl)c1nc2ccn(C)c2cc1-c1ccnn1C [Example 33, (S)-5-Chloro-N^4-(1-(1-methyl-6-(1-methyl-1H-pyrazol-5-yl)-1H-pyrrolo[3,2-b]pyridin-5-yl)ethyl)pyrimidine-2,4,6-triamine]
5.01 nM | C[C@H](Nc1nc(N)nc2[nH]cnc12)c1nc2ccn(C)c2cc1-c1ccccn1 [Example 34, (S)—N^6-(1-(1-Methyl-6-(pyridin-2-yl)-1H-pyrrolo[3,2-b]pyridin-5-yl)ethyl)-9H-purine-2,6-diamine]
2.51 nM | C[C@H](Nc1nc(N)nc(N)c1C#N)c1nc2ccn(C)c2cc1-c1ccnn1C1CC1 [Example 35, (S)-2,4-Diamino-6-((1-(6-(1-cyclopropyl-1H-pyrazol-5-yl)-1-methyl-1H-pyrrolo[3,2-b]pyridin-5-yl)ethyl)amino)pyrimidine-5-carbonitrile]
10 nM | C[C@H](Nc1nc(N)nc2[nH]cnc12)c1nc2ccn(C)c2cc1-c1ccnn1C1CC1 [Example 36, (S)-N^6-(1-(6-(1-Cyclopropyl-1H-pyrazol-5-yl)-1-methyl-1H-pyrrolo[3,2-b]pyridin-5-yl)ethyl)-9H-purine-2,6-diamine]
10 nM | C[C@H](Nc1nc(N)nc2[nH]cnc12)c1nc2ccn(C)c2cc1-c1ccnn1C(F)F [Example 37, (S)-N^6-(1-(6-(1-(Difluoromethyl)-1H-pyrazol-5-yl)-1-methyl-1H-pyrrolo[3,2-b]pyridin-5-yl)ethyl)-9H-purine-2,6-diamine]
158 nM | CC(Nc1nc(N)nc(N)c1Cl)c1nc2ccn(C)c2cc1N1CC(F)(F)C1 (stereo not shown) [Example 38, 5-Chloro-N^4-(1-(6-(3,3-difluoroazetidin-1-yl)-1-methyl-1H-pyrrolo[3,2-b]pyridin-5-yl)ethyl)pyrimidine-2,4,6-triamine]
< 1.58 nM | CC(Nc1nc(N)nc(N)c1C#N)c1nc2ccn(C)c2cc1N1CC(O)C1 (stereo not shown) [Example 39, 2,4-Diamino-6-((1-(6-(3-hydroxyazetidin-1-yl)-1-methyl-1H-pyrrolo[3,2-b]pyridin-5-yl)ethyl)amino)pyrimidine-5-carbonitrile]
79.4 nM | CC(Nc1nc(N)nc(N)c1Cl)c1nc2ccn(C)c2cc1N1CC(O)C1 (stereo not shown) [Example 40, 1-(5-(1-((2,6-Diamino-5-chloropyrimidin-4-yl)amino)ethyl)-1-methyl-1H-pyrrolo[3,2-b]pyridin-6-yl)azetidin-3-ol]
< 1.58 nM | COC1CN(c2cc3c(ccn3C)nc2[C@H](C)Nc2nc(N)nc(N)c2C#N)C1 [Example 41, (S)-2,4-Diamino-6-((1-(6-(3-methoxyazetidin-1-yl)-1-methyl-1H-pyrrolo[3,2-b]pyridin-5-yl)ethyl)amino)pyrimidine-5-carbonitrile]
1000 nM | C[C@@H](Nc1nc(N)nc(N)c1C#N)c1nc2ccn(C)c2cc1N1CC(F)(F)C1 [Example 43, (R)-2,4-Diamino-6-((1-(6-(3,3-difluoroazetidin-1-yl)-1-methyl-1H-pyrrolo[3,2-b]pyridin-5-yl)ethyl)amino)pyrimidine-5-carbonitrile]
2 nM | C[C@H](Nc1nc(N)nc(N)c1C#N)c1nc2ccn(C)c2cc1N1CC(F)(F)C1 [Example 44, (S)-2,4-Diamino-6-((1-(6-(3,3-difluoroazetidin-1-yl)-1-methyl-1H-pyrrolo[3,2-b]pyridin-5-yl)ethyl)amino)pyrimidine-5-carbonitrile]
200 nM | C[C@@H](Nc1nc(N)nc(N)c1C#N)c1nc2ccn(C)c2cc1N1CC2(COC2)C1 [Example 46, (R)-2,4-Diamino-6-((1-(1-methyl-6-(2-oxa-6-azaspiro[3.3]heptan-6-yl)-1H-pyrrolo[3,2-b]pyridin-5-yl)ethyl)amino)pyrimidine-5-carbonitrile]
15.8 nM | C[C@H](Nc1nc(N)nc(N)c1C#N)c1nc2ccn(C)c2cc1N1CC2(COC2)C1 [Example 47, (S)-2,4-Diamino-6-((1-(1-methyl-6-(2-oxa-6-azaspiro[3.3]heptan-6-yl)-1H-pyrrolo[3,2-b]pyridin-5-yl)ethyl)amino)pyrimidine-5-carbonitrile]
79.4 nM | C[C@@H](Nc1nc(N)nc(N)c1C#N)c1nc2ccn(C)c2cc1N1CCOCC1 [Example 48, (R)-2,4-Diamino-6-((1-(1-methyl-6-morpholino-1H-pyrrolo[3,2-b]pyridin-5-yl)ethyl)amino)pyrimidine-5-carbonitrile]
251 nM | C[C@H](Nc1nc(N)nc(N)c1C#N)c1nc2c(O)cn(C)c2cc1N1CCOCC1 [Example 49, (S)-2,4-Diamino-6-((1-(3-hydroxy-1-methyl-6-morpholino-1H-pyrrolo[3,2-b]pyridin-5-yl)ethyl)amino)pyrimidine-5-carbonitrile]

From patent US8835420B2, “Azaindole derivatives” (Takeda Pharmaceutical Company Limited, priority 2012, dated 2014)
